Converted amounts (≈) assume the structure as drawn. Each block holds one molecule with its values, some of them ahead of it.
Columns and labels:
[1] = Thermodynamic solubility in simulated intestinal fluid (TS in FaSSIF); format: physicochemical; details: thermodynamic from solid, 37° C.
Method: Simulated intestinal fluid FaSSIF: 54.76 mg of FaSSIF-V2 (Biorelevant, batch. V2FAS-0619-A, lot. V2FAS01) was weighed and added to 15 mL of a buffer solution. After dissolving, the solution was supplemented to 30 mL, and put at room temperature for 1 hour before use.
Waters e2695 HPLC high performance liquid chromatography, Mettler XSE105 analytical balance.
Firstly, a 10 mM stock solution was prepared with DMSO, and was diluted with a diluent (ACN: PB buffer 50:50) into 1 μM-200 μM as a standard solution.
Thermodynamic solubility in intestinal fluid (TS in FaSSIF) was simulated. About 0.3 mg of each sample was weighed and added to 1.5 mL of FaSSIF solution, with two parts in parallel, shaken at 1000 rpm at 37° C. for 4 hours, filtered. 1 mL of an initial filtrate was discarded, and 400 μL of the subsequent filtrate was taken. The filtrate was detected by high performance liquid chromatograph (UV).

α5-GABAA receptor = biological target: T1, α5-GABAA receptor (Homo sapiens, UniProt P18507+P31644); test: Cell-level screening: whole cell patch clamp, inverse agonist efficacy on α5-GABAA receptor expressed in HEK293; format: cell-based; details: drug 100 nM, GABA 0.05 μM, HEK293 expressing α5, β3 and γ2 subunits, clamped at −60 mV; read-out: Compound inverse agonist efficacy %
T1 construct: expressed in transfected cells; host or cells: HEK293, monoclonal stably transfected line
T1 sequence (P31644 32-462): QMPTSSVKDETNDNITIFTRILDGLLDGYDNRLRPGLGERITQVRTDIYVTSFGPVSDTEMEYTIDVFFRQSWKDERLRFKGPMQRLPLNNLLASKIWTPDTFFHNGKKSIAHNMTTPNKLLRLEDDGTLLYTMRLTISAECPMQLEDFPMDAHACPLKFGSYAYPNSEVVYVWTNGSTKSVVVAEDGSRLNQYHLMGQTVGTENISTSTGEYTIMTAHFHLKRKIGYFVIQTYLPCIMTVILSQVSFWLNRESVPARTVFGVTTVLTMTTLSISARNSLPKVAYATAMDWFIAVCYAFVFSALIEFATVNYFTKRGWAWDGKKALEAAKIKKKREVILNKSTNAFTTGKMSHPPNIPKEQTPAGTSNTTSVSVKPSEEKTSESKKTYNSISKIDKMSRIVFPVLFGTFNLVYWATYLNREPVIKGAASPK
T1 sequence (P28472 26-473 partner): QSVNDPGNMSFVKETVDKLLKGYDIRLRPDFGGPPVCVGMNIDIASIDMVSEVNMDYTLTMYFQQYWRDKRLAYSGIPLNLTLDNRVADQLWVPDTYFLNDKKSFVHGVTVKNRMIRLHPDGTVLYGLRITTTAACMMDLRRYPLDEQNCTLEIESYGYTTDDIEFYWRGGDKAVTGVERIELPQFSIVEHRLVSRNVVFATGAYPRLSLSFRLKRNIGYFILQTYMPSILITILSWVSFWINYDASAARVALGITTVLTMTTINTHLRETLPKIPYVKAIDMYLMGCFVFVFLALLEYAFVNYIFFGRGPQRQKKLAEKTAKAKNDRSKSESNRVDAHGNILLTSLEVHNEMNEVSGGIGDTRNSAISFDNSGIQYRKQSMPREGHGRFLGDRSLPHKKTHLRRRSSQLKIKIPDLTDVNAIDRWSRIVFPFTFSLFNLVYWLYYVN
T1 sequence (P18507 40-467 isoform P18507-1 limits assumed): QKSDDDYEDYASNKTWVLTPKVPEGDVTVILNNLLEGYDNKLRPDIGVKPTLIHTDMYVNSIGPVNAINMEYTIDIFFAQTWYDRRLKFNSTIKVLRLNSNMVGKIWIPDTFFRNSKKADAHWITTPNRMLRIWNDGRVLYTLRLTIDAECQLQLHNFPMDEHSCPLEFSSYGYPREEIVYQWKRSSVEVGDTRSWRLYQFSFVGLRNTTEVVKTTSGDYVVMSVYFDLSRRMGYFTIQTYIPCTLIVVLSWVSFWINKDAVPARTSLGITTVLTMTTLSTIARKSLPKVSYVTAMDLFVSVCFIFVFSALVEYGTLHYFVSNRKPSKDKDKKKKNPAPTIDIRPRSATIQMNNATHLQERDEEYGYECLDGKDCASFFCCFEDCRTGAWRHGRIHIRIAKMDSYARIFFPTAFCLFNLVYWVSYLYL
In short: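 Whole-cell patch clamp at −60 mV on HEK293 stably expressing α5β3γ2, pH 7.4 extracellular/CsCl internal solutions. Current evoked by 0.05 μM GABA, then compound in GABA solution; screening at 100 nM, dose-response 0.3–300 nM. Inverse agonist efficacy as % change of GABA current.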

Structure (SMILES): CCN1CCc2nc(COc3nn4c(-c5cc(C)on5)nnc4cc3OC)ccc2C1=O [Embodiment 109]
solubility thermodynamic at 4 h [1]: 54 µg/mL (≈ 124 µM) | inhibition at 0.1 µM (α5-GABAA receptor): 47.3%

Structure (SMILES): COc1cnnc(COc2nn3c(-c4cc(C)on4)nnc3cc2OC)c1 [Embodiment 49]
solubility thermodynamic at 4 h [1]: 143 µg/mL (≈ 386 µM) | inhibition at 0.1 µM (α5-GABAA receptor): 37.2%

Structure (SMILES): COCCn1cccc(COc2nn3c(-c4cc(C)on4)nnc3cc2OC)c1=O [Embodiment 75]
solubility thermodynamic at 4 h [1]: 52.4 µg/mL (≈ 127 µM) | inhibition at 0.1 µM (α5-GABAA receptor): 44.3%

Structure (SMILES): CCN1Cc2ccc(COc3nn4c(-c5cc(C)on5)nnc4cc3OC)nc2C1 [Embodiment 68]
solubility thermodynamic at 4 h [1]: 146 µg/mL (≈ 358 µM) | inhibition at 0.1 µM (α5-GABAA receptor): 51.3%

Structure (SMILES): COc1cc2nnc(-c3cc(C)on3)n2nc1OCc1ccc2c(n1)CCN(Cc1ncccn1)C2=O [Embodiment 88, 2-(((7-Methoxy-3-(5-methylisoxazol-3-yl)-[1,2,4]triazolo[4,3-b]pyridazin-6-yl)oxy)methyl)-6-(pyrimidin-2-ylmethyl)-7,8-dihydro-1,6-naphthyridin-5(6H)-one]
solubility thermodynamic at 4 h [1]: 60.3 µg/mL (≈ 121 µM) | inhibition at 0.1 µM (α5-GABAA receptor): 32.5%

Structure (SMILES): COc1cc2nnc(-c3cc(C)on3)n2nc1OCc1ccc2c(n1)CN(C(C)C)C2 [Embodiment 102]
solubility thermodynamic at 4 h [1]: 30.8 µg/mL (≈ 73.1 µM) | inhibition at 0.1 µM (α5-GABAA receptor): 47.3%

Structure (SMILES): COCCCOc1ccnc(COc2nn3c(-c4cc(C)on4)nnc3cc2OC)c1 [Embodiment 55]
solubility thermodynamic at 4 h [1]: 38 µg/mL (≈ 89.1 µM) | inhibition at 0.1 µM (α5-GABAA receptor): 25.1%

Structure (SMILES): COCc1cc(-c2nnc3cc(OC)c(OCc4ccccn4)nn23)no1 [Embodiment 28, 3-(7-Methoxy-6-(pyridin-2-ylmethoxy)-[1,2,4]triazolo[4,3-b]pyridazin-3-yl)-5-(methoxymethyl)isoxazole]
solubility thermodynamic at 4 h [1]: 55.2 µg/mL (≈ 150 µM) | inhibition at 0.1 µM (α5-GABAA receptor): 35.4%

Structure (SMILES): CCNCc1ccc(COc2nn3c(-c4cc(C)on4)nnc3cc2OC)nc1 [Embodiment 21]
solubility thermodynamic at 4 h [1]: 519 µg/mL (≈ 1310 µM) | inhibition at 0.1 µM (α5-GABAA receptor): 36.3%

Structure (SMILES): COc1cc2nnc(-c3cc(C)on3)n2nc1OCc1ccc(=O)n(CCCC#N)n1 [Embodiment 36]
solubility thermodynamic at 4 h [1]: 123 µg/mL (≈ 290 µM) | inhibition at 0.1 µM (α5-GABAA receptor): 25.9%

Structure (SMILES): COCCN1CCc2nc(COc3nn4c(-c5cc(C)on5)nnc4cc3OC)ccc2C1=O [Embodiment 110]
solubility thermodynamic at 4 h [1]: 46.6 µg/mL (≈ 100 µM) | inhibition at 0.1 µM (α5-GABAA receptor): 58.6%

Structure (SMILES): COc1cc2nnc(-c3cc(C)on3)n2nc1OCc1ncnn1C [Embodiment 1, 3-(7-Methoxy-6-((1-methyl-1H-1,2,4-triazol-5-yl)methoxy)-[1,2,4]triazolo[4,3-b]pyridazin-3-yl)-5-methylisoxazole]
solubility thermodynamic at 4 h [1]: 146 µg/mL (≈ 427 µM) | inhibition at 0.1 µM (α5-GABAA receptor): 41.9%

Structure (SMILES): COCCOc1ccc(COc2nn3c(-c4cc(C)on4)nnc3cc2OC)nc1 [Embodiment 6]
solubility thermodynamic at 4 h [1]: 46.9 µg/mL (≈ 114 µM) | inhibition at 0.1 µM (α5-GABAA receptor): 42.2%

Structure (SMILES): COc1ccc(COc2nn3c(-c4cc(CO)on4)nnc3cc2OC)nc1 [Embodiment 47, (3-(7-Methoxy-6-((5-methoxypyridin-2-yl)methoxy)-[1,2,4]triazolo[4,3-b]pyridazine-3-yl)isoxazol-5-yl)methanol]
solubility thermodynamic at 4 h [1]: 40.4 µg/mL (≈ 105 µM) | inhibition at 0.1 µM (α5-GABAA receptor): 45.2%

Structure (SMILES): COc1cc2nnc(-c3cc(C)on3)n2nc1OCc1nccc(OC)c1OC [Embodiment 7]
solubility thermodynamic at 4 h [1]: 37.8 µg/mL (≈ 94.9 µM) | inhibition at 0.1 µM (α5-GABAA receptor): 30.1%

Structure (SMILES): COCc1ccc(COc2nn3c(-c4cc(C)on4)nnc3cc2OC)nc1 [Embodiment 32]
solubility thermodynamic at 4 h [1]: 262 µg/mL (≈ 686 µM) | inhibition at 0.1 µM (α5-GABAA receptor): 41.6%

Structure (SMILES): COCCN1Cc2ccc(COc3nn4c(-c5cc(C)on5)nnc4cc3OC)nc2C1 [Embodiment 99]
solubility thermodynamic at 4 h [1]: 222 µg/mL (≈ 508 µM) | inhibition at 0.1 µM (α5-GABAA receptor): 33.7%

Other lines, results leading:

solubility thermodynamic at 4 h [1]: 266 µg/mL (≈ 594 µM) | inhibition at 0.1 µM (α5-GABAA receptor): 53.2%
Structure (SMILES): COc1cc2nnc(-c3cc(C)on3)n2nc1OCc1ccc2c(cnn2C2CN(C)C2)n1 [Embodiment 234]

solubility thermodynamic at 4 h [1]: 318 µg/mL (≈ 644 µM) | inhibition at 0.1 µM (α5-GABAA receptor): 52.4%
Structure (SMILES): COCCCC(=O)N1CCc2nc(COc3nn4c(-c5cc(C)on5)nnc4cc3OC)ccc2C1 [Embodiment 112]

solubility thermodynamic at 4 h [1]: 204 µg/mL (≈ 395 µM) | inhibition at 0.1 µM (α5-GABAA receptor): 55.9%
Structure (SMILES): COc1cc2nnc(-c3cc(C)on3)n2nc1OCc1ccc2c(n1)CCN(C1CN(C(=O)C3CC3)C1)C2 [Embodiment 198]

solubility thermodynamic at 4 h [1]: 73.8 µg/mL (≈ 167 µM) | inhibition at 0.1 µM (α5-GABAA receptor): 40.5%
Structure (SMILES): COCCCOc1cc(C)c(COc2nn3c(-c4cc(C)on4)nnc3cc2OC)nn1 [Embodiment 156]

solubility thermodynamic at 4 h [1]: 365 µg/mL (≈ 859 µM) | inhibition at 0.1 µM (α5-GABAA receptor): 43.9%
Structure (SMILES): COc1cc2nnc(-c3cc(C)on3)n2nc1OCc1ccc(C2(F)CN(C)C2)cn1 [Embodiment 124]

solubility thermodynamic at 4 h [1]: 32.8 µg/mL (≈ 74.8 µM) | inhibition at 0.1 µM (α5-GABAA receptor): 58.8%
Structure (SMILES): COc1cc2nnc(-c3cc(C)on3)n2nc1OCc1ccc(OCC2CCOC2)cn1 (stereo not shown) [Embodiment 173]

solubility thermodynamic at 4 h [1]: 309 µg/mL (≈ 660 µM) | inhibition at 0.1 µM (α5-GABAA receptor): 33.9%
Structure (SMILES): COc1cc2nnc(-c3cc(C)on3)n2nc1OCc1ccc(OCCN2CCOCC2)nn1 [Embodiment 164]

solubility thermodynamic at 4 h [1]: 59.9 µg/mL (≈ 136 µM) | inhibition at 0.1 µM (α5-GABAA receptor): 37.5%
Structure (SMILES): CCOCCCOc1ccc(COc2nn3c(-c4cc(C)on4)nnc3cc2OC)nn1 [Embodiment 168]

solubility thermodynamic at 4 h [1]: 264 µg/mL (≈ 569 µM) | inhibition at 0.1 µM (α5-GABAA receptor): 63.6%
Structure (SMILES): COc1cc2nnc(-c3cc(C)on3)n2nc1OCc1ccc2c(n1)CCN(C(=O)N(C)C)C2 [Embodiment 203]

solubility thermodynamic at 4 h [1]: 75.8 µg/mL (≈ 150 µM) | inhibition at 0.1 µM (α5-GABAA receptor): 52.4%
Structure (SMILES): COc1cc2nnc(-c3cc(C)on3)n2nc1OCc1ccc2c(n1)CCN(CC(=O)N1CCCC1)C2 [Embodiment 189]

solubility thermodynamic at 4 h [1]: 35.4 µg/mL (≈ 80.8 µM) | inhibition at 0.1 µM (α5-GABAA receptor): 43.5%
Structure (SMILES): COc1cc2nnc(-c3cc(C)on3)n2nc1OCc1ccc(OC2CCOCC2)cn1 [Embodiment 174]

solubility thermodynamic at 4 h [1]: 63.9 µg/mL (≈ 138 µM) | inhibition at 0.1 µM (α5-GABAA receptor): 40.6%
Structure (SMILES): COc1cc2nnc(-c3cc(C)on3)n2nc1OCc1ccc2c(n1)CCN(C1COC1)C2=O [Embodiment 141]

solubility thermodynamic at 4 h [1]: 57.6 µg/mL (≈ 124 µM) | inhibition at 0.1 µM (α5-GABAA receptor): 45.6%
Structure (SMILES): COc1cc2nnc(-c3cc(C)on3)n2nc1OCc1ccn2c(C3CCOCC3)nnc2n1 [Embodiment 217]

solubility thermodynamic at 4 h [1]: 179 µg/mL (≈ 373 µM) | inhibition at 0.1 µM (α5-GABAA receptor): 45.2%
Structure (SMILES): COc1cc2nnc(-c3cc(C)on3)n2nc1OCc1ccc(OCCN2CCN(C)CC2)nn1 [Embodiment 163]

solubility thermodynamic at 4 h [1]: 237 µg/mL (≈ 562 µM) | inhibition at 0.1 µM (α5-GABAA receptor): 34.9%
Structure (SMILES): COc1cc2nnc(-c3cc(C)on3)n2nc1OCc1ccc2nnc(C(C)C)n2n1 [Embodiment 214]

solubility thermodynamic at 4 h [1]: 35.4 µg/mL (≈ 93.8 µM) | inhibition at 0.1 µM (α5-GABAA receptor): 39.5%
Structure (SMILES): COc1cc2nnc(-c3cc(C)on3)n2nc1OCc1cccc2nccn12 [Embodiment 135]

solubility thermodynamic at 4 h [1]: 146 µg/mL (≈ 356 µM) | inhibition at 0.1 µM (α5-GABAA receptor): 65.4%
Structure (SMILES): COc1cc2nnc(-c3cc(C)on3)n2nc1OCc1cc(OC2COC2)cnn1 [Embodiment 180]

solubility thermodynamic at 4 h [1]: 237 µg/mL (≈ 538 µM) | inhibition at 0.1 µM (α5-GABAA receptor): 36.6%
Structure (SMILES): COc1cc2nnc(-c3cc(C)on3)n2nc1OCc1ccc(OCC2CCOC2)nn1 (stereo not shown) [Embodiment 162]

solubility thermodynamic at 4 h [1]: 203 µg/mL (≈ 481 µM) | inhibition at 0.1 µM (α5-GABAA receptor): 38.3%
Structure (SMILES): COc1cc2nnc(-c3cc(C)on3)n2nc1OCc1cccc(C2CCNCC2)n1 [Embodiment 126]

solubility thermodynamic at 4 h [1]: 30.6 µg/mL (≈ 68.1 µM) | inhibition at 0.1 µM (α5-GABAA receptor): 40.3%
Structure (SMILES): COc1cc2nnc(-c3cc(C)on3)n2nc1OCc1ccc2nn(C3CCOC3)cc2n1 (stereo not shown) [Embodiment 231]

solubility thermodynamic at 4 h [1]: 167 µg/mL (≈ 425 µM) | inhibition at 0.1 µM (α5-GABAA receptor): 52.1%
Structure (SMILES): COc1cc2nnc(-c3cc(C)on3)n2nc1OCc1ccc2nnc(C)n2n1 [Embodiment 216]

Source: patent US12637468B2, “Substituted [1,2,4]triazolo[4,3-b]pyridazines as GABAA receptor modulators” (SHANGHAI SIMR BIOTECHNOLOGY CO., LTD., priority 2019, dated 2026)
